{"source": "ChEMBL document CHEMBL1201862", "about": "“PubChem BioAssay data set” (2004)", "key": {"[1]": {"biological_target": "Cytochrome P450 3A4 (Homo sapiens, UniProt P08684)", "sequence (P08684 whole entry)": "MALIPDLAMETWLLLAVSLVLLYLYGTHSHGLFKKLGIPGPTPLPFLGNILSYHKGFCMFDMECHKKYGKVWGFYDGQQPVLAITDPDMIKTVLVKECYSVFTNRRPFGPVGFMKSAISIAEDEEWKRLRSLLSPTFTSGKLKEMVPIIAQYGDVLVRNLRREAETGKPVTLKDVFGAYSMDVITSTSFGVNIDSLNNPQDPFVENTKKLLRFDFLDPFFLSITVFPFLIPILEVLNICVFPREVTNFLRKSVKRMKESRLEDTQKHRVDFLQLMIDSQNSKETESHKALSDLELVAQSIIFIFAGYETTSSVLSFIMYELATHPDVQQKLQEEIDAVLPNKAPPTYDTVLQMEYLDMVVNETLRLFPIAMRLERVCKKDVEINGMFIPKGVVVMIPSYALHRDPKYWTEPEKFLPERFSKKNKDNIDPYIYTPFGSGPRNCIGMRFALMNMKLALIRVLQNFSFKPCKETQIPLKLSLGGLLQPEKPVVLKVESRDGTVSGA"}, "[2]": {"biological_target": "fMet-Leu-Phe receptor (Homo sapiens, UniProt P21462)", "experiment": "formyl peptide receptor binders – dose response (AID 519)", "assay_type": "functional"}, "[3]": {"biological_target": "Cytochrome P450 2D6 (Homo sapiens, UniProt P10635)", "sequence (P10635 whole entry)": "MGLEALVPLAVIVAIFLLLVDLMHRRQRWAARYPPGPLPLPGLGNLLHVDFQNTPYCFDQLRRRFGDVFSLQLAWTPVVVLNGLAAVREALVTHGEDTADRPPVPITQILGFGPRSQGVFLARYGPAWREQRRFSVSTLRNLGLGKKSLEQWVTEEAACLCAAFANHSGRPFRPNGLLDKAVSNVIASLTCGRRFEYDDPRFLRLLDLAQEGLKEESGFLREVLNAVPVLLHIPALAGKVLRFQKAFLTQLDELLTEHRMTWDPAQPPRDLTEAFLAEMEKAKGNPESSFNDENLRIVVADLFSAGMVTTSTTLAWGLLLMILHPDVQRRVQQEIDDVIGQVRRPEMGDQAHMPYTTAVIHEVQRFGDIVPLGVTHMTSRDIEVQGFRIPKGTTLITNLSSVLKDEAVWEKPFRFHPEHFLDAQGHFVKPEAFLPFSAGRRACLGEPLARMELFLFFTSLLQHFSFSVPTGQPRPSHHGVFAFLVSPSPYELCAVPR"}, "[4]": {"biological_target": "Cytochrome P450 2C19 (Homo sapiens, UniProt P33261)", "experiment": "Cytochrome panel assay with activity outcomes. Panel member name: p450-cyp2c19 Compounds with AC50 equal or less than 10 uM are considered active", "assay_type": "functional", "conditions": "read-out: AC50"}, "[5]": {"biological_target": "T1, Cytochrome P450 1A2 (Homo sapiens, UniProt P05177)", "T1 sequence (P05177 whole entry)": "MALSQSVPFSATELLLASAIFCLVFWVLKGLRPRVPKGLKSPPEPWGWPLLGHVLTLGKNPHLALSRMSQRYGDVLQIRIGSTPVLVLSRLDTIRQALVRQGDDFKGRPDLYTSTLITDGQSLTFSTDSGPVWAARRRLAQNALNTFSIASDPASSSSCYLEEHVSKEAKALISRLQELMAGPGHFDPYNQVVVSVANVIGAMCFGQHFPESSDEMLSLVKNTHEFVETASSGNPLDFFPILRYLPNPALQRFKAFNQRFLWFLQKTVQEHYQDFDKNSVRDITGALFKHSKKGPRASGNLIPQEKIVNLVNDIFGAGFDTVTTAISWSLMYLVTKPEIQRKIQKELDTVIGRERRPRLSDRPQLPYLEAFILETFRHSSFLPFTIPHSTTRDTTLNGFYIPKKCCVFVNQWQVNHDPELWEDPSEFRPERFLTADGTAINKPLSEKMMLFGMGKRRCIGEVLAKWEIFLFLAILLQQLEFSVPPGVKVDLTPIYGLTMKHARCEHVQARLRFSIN"}, "[6]": {"biological_target": "Cytochrome P450 2C9 (Homo sapiens, UniProt P11712)"}, "[7]": {"biological_target": "T2, ORF 73 (Human herpesvirus 8, UniProt O40947)", "T2 sequence (O40947 whole entry)": "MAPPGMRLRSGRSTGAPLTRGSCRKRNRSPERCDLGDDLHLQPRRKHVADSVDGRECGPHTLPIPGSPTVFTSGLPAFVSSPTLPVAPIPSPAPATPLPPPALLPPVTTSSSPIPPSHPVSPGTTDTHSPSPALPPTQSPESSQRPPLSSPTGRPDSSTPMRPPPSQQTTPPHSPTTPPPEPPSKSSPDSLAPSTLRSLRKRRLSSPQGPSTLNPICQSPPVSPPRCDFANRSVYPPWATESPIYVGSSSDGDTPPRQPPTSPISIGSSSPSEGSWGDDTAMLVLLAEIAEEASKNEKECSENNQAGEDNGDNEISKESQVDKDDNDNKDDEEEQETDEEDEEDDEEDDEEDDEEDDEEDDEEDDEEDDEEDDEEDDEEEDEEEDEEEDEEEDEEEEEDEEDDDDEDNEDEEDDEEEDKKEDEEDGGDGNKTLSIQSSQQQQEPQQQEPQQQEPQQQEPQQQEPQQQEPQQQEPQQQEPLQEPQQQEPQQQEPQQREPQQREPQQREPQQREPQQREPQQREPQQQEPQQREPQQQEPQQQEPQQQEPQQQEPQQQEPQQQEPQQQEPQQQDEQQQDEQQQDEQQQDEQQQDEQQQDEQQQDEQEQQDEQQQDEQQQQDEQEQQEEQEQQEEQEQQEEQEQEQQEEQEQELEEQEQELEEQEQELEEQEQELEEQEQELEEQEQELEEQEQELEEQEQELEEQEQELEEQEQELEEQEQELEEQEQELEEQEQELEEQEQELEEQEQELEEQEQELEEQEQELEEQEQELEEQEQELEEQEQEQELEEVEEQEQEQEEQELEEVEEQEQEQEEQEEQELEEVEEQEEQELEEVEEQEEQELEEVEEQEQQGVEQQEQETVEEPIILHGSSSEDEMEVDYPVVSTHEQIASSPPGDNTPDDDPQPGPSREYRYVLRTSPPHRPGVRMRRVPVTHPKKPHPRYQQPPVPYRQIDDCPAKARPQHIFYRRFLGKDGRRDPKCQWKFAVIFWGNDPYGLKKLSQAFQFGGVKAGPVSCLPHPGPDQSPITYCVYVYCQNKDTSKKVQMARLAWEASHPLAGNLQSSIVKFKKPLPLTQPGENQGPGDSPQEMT", "experiment": "KSHV LANA DNA-binding disruption – biochemical, fluorescence polarization, cherry-picked samples, dose response (AID 504725);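 further: fluorescence polarization of a labeled DNA duplex reporting LANA DNA binding; potency is for inhibitors that block LANA binding to the DNA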", "set-up": "species or system Human gammaherpesvirus 8"}, "[8]": {"biological_target": "T3, Voltage-gated N-type calcium channel alpha-1B subunit/Amyloid beta A4 precursor protein-binding family A member 1 (Homo sapiens, UniProt Q00975+Q02410)", "T3 sequence (Q00975 whole entry)": "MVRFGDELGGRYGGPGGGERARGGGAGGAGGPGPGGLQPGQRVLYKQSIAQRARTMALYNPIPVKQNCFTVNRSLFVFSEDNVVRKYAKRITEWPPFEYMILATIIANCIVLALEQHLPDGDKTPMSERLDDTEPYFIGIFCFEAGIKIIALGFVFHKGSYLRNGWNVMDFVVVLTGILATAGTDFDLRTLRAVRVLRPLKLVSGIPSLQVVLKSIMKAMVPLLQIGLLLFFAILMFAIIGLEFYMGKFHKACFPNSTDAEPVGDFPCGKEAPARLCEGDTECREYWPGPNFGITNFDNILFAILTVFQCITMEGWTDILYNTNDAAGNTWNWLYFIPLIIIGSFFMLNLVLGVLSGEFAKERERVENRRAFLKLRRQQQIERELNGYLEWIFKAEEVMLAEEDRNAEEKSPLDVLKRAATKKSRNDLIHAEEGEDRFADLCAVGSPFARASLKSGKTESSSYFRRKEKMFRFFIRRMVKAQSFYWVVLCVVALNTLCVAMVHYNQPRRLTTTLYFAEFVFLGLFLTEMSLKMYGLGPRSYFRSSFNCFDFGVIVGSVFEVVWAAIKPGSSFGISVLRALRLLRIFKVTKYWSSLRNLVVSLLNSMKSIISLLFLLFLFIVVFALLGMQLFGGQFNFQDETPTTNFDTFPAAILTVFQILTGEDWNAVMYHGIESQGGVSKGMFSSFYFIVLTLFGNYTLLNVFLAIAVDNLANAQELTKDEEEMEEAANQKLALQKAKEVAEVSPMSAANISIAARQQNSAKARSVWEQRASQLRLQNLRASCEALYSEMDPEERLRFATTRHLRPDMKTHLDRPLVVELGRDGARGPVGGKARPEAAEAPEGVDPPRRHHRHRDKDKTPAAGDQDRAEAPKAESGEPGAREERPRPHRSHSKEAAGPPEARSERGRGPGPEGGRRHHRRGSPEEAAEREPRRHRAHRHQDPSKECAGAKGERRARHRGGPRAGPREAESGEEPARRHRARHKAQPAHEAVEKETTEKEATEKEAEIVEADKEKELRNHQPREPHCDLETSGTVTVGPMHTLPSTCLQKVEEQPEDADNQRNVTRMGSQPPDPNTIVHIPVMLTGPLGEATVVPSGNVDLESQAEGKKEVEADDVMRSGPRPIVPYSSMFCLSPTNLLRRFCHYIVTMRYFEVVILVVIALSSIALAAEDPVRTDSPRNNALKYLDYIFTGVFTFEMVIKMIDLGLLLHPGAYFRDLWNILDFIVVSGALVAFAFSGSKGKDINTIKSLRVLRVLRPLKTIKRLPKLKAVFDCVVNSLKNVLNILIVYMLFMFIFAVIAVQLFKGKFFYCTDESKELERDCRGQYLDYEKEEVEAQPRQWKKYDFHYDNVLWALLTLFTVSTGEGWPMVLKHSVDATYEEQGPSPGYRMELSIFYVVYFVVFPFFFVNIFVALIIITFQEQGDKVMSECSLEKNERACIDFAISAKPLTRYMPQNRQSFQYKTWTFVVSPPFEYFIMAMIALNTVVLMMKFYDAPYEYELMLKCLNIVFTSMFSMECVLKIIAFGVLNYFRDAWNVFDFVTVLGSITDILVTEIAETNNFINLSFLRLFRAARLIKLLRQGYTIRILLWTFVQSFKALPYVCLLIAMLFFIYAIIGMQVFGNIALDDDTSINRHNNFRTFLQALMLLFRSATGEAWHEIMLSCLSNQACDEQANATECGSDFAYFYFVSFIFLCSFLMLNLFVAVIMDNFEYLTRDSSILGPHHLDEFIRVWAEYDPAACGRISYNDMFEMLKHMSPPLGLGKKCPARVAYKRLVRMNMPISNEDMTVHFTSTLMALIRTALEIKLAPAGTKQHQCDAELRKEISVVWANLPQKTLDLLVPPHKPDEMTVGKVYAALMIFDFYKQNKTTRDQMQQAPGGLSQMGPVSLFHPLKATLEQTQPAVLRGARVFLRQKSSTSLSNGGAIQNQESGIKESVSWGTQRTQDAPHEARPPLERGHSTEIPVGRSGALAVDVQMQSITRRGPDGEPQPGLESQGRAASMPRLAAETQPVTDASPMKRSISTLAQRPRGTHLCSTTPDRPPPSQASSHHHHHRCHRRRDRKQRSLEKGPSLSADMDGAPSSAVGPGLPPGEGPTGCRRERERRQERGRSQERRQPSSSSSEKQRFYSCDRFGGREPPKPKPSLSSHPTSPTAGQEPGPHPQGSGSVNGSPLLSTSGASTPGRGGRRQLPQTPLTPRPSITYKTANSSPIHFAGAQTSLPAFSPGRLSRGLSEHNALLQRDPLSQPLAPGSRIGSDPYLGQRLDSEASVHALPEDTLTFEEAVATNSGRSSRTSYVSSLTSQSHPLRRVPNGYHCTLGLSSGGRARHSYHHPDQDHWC", "T3 sequence (Q02410 whole entry)": "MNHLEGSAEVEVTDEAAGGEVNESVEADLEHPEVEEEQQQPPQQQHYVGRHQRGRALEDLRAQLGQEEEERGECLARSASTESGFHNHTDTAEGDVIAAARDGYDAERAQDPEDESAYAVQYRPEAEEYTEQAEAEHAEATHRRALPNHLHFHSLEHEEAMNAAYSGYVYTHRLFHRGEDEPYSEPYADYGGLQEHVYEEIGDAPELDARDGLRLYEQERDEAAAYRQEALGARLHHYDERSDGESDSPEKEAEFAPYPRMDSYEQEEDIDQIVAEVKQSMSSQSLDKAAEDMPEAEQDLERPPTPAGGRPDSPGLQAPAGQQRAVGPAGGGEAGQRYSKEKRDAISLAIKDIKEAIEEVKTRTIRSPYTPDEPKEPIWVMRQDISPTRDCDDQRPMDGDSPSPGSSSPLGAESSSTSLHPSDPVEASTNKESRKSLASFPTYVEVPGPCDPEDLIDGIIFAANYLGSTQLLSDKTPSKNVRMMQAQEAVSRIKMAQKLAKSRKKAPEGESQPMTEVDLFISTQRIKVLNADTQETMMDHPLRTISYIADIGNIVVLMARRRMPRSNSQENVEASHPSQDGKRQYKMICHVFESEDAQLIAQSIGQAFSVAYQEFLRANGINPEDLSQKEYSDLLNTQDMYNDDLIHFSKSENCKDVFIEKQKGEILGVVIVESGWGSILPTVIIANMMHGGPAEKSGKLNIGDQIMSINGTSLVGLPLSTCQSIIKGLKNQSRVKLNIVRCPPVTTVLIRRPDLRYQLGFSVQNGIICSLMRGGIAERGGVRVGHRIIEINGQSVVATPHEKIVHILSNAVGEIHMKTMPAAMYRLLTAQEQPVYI", "assay_type": "protein assay"}, "[9]": {"biological_target": "T3, Voltage-gated N-type calcium channel alpha-1B subunit/Amyloid beta A4 precursor protein-binding family A member 1", "assay_type": "protein assay", "remark": "listed apart in the source"}, "[10]": {"biological_target": "Beta-lactamase (Salmonella choleraesuis (strain SC-B67), UniProt Q5J463)"}, "[11]": {"biological_target": "Beta-lactamase (Pseudomonas aeruginosa, UniProt Q79MP6)", "sequence (Q79MP6 whole entry)": "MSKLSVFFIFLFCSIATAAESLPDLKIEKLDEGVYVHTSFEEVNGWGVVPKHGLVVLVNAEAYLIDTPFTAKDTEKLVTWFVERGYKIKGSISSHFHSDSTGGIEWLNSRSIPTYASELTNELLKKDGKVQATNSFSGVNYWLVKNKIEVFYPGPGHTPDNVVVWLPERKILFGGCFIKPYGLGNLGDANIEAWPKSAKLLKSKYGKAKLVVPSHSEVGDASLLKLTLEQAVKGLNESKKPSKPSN"}, "[12]": {"biological_target": "UDP-galactopyranose mutase (Mycobacterium tuberculosis, UniProt P9WIQ1)", "sequence (P9WIQ1 whole entry)": "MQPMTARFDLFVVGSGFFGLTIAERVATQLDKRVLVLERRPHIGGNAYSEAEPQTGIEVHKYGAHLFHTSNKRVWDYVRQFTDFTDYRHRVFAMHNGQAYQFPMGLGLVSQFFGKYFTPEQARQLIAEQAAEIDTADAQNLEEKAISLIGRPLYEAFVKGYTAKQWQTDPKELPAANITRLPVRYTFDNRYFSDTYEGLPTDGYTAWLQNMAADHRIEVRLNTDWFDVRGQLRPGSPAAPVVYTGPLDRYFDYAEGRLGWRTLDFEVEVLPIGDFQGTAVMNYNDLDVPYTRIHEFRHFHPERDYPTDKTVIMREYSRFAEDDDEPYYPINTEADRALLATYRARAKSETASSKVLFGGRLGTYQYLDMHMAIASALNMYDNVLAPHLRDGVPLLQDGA", "experiment": "Inhibitors of Mycobacterium tuberculosis UDP-galactopyranose mutase (UGM) enzyme Measured in Biochemical System Using Plate Reader - 2105-02_Inhibitor_Dose_CherryPick_Activity. [Related pubchem assays (depositor defined):AID504439]"}, "[13]": {"biological_target": "Keap1/Nrf2 (Homo sapiens, UniProt Q14145)", "experiment": "disruptors of Keap1 binding to Nrf2 peptide – biochemical, fluorescence polarization, cherry-picked samples, dose response (AID 588683)"}}, "note": "Calls of active or inactive are those of the source."}
{"smiles": "Cc1c(C(=O)NC2CCCc3ccccc32)oc2ccc(S(=O)(=O)N3CCOCC3)cc12", "note": "(stereo not drawn)", "values": [{"measurement": "AC50", "setting": "[1]", "value": "inconclusive"}, {"measurement": "Ki", "setting": "[2]", "value": "37 µM (inactive)"}, {"measurement": "AC50", "setting": "[3]", "value": "inconclusive"}]}
{"smiles": "CCOC(=O)N1CCN(Cc2nc3c(c(=O)[nH]c(=O)n3C)n2Cc2ccccc2C)CC1", "values": [{"measurement": "AC50", "setting": "[4]", "value": "20 µM (inconclusive)"}, {"measurement": "AC50", "setting": "[5]", "value": "inconclusive"}, {"measurement": "AC50", "setting": "[6]", "value": "35.5 µM (inconclusive)"}]}
{"smiles": "CCCCn1c(=O)[nH]c2nc3cc(N)ccc3nc2c1=O", "values": [{"measurement": "AC50", "setting": "[7]", "value": "2.4 µM (active)"}, {"measurement": "IC50", "setting": "[8]", "value": "19.1 µM (active)"}, {"measurement": "IC50", "setting": "[9]", "value": "> 50 µM (inactive)"}, {"measurement": "IC50", "setting": "[10]", "value": "7.87 µM (active)"}, {"measurement": "IC50", "setting": "[11]", "value": "20.7 µM (inactive)"}, {"measurement": "AC50", "setting": "[12]", "value": "2.42 µM (active)"}, {"measurement": "AC50", "setting": "[13]", "value": "3.52 µM (active)"}]}
